From ChEMBL document CHEMBL3124933, “Optimization of brain penetrant 11β-hydroxysteroid dehydrogenase type I inhibitors and in vivo testing in diet-induced obese mice” (J Med Chem, 2014)
Values belong to the compound of their own block, whether it stands above or below them.

Columns and labels:
[1] = physchem; details: buffer, pH 7.4
[2] = Ratio of total drug level in brain to blood in Han Wistar rat at 30 mg/kg, po measured at 1 hr by LC-MS/MS analysis; format: ADME, organism-based; set-up: dose 30 mg/kg, route oral; details: read-out: BBR
[3] = Clearance in iv dosed Han Wistar rat; format: ADME, organism-based; details: in vivo
[4] = Oral bioavailability in Han Wistar rat; format: ADME, organism-based; details: in vivo
[5] = AUC in Han Wistar rat whole blood at 7.4 umol/kg, po
[6] = Oral bioavailability in Han Wistar rat at 7.4 umol/kg; format: ADME, organism-based; details: in vivo
[7] = Ratio of free drug level in brain to blood in diet-induced obese C57B6 mouse model at 4 to 40 mg/kg/day administered through diet for 21 days measured on day 24; format: ADME, organism-based; details: po
[8] = Clearance in Han Wistar rat at 5.2 umol/kg, iv; format: ADME, organism-based; details: in vivo
[9] = Volume of distribution at steady state in Han Wistar rat at 5.2 umol/kg, iv; format: ADME, organism-based; details: in vivo, read-out: Vdss
[10] = Oral bioavailability in C57B6 mouse at 17.6 umol/kg; format: ADME, organism-based; details: in vivo
[11] = Volume of distribution at steady state in C57B6 mouse at 3.5 umol/kg, iv; format: ADME, organism-based; details: in vivo, read-out: Vdss
[12] = AUC in C57B6 mouse at 17.6 umol/kg, po; format: ADME, organism-based, Plasma; details: whole blood
[13] = Clearance in C57B6 mouse at 3.5 umol/kg, iv; format: ADME, organism-based; details: in vivo
[14] = Ratio of free drug level in brain to blood in Han Wistar rat at 30 mg/kg, po measured at 1 hr by LC-MS/MS analysis; format: ADME, organism-based; set-up: dose 30 mg/kg, route oral
[15] = Apparent permeability from apical to basolateral side in MDCK cells; format: ADME, cell-based, Canis lupus familiaris; details: dog
[16] = Volume of distribution at steady state in C57B6 mouse at 4 umol/kg, iv; format: ADME, organism-based; details: in vivo, read-out: Vdss
[17] = Ratio of free drug level in brain to blood in diet-induced obese C57B6 mouse model at 20 mg/kg administered through diet for 21 days measured on day 24; format: ADME, organism-based; set-up: dose 20 mg/kg; details: po
[18] = Clearance in C57B6 mouse at 4 umol/kg, iv; format: ADME, organism-based; details: in vivo
[19] = AUC in C57B6 mouse at 14.3 umol/kg, po; format: ADME, organism-based, Plasma; details: whole blood
[20] = Clearance in Han Wistar rat at 3.1 umol/kg, iv; format: ADME, organism-based; details: in vivo
[21] = AUC in Han Wistar rat at 12.3 umol/kg, po; format: ADME, organism-based, Plasma; details: whole blood
[22] = Volume of distribution at steady state in Han Wistar rat at 3.1 umol/kg, iv; format: ADME, organism-based; details: in vivo, read-out: Vdss
[23] = Oral bioavailability in C57B6 mouse at 14.3 umol/kg; format: ADME, organism-based; details: in vivo
[24] = Oral bioavailability in Han Wistar rat at 12.3 umol/kg; format: ADME, organism-based; details: in vivo

SMILES: COc1ncsc1C(=O)NC1C2CC3CC1CC(O)(C3)C2 (stereo unspecified)
logD [1]: 1.7

SMILES: O=C(N[C@H]1C2CC3CC1C[C@](O)(C3)C2)c1sc(OC2CCOCC2)nc1[C@H]1CCCO1
Kp at 1 h [2]: 1.1
AUC [5]: 3.9 µM·h
logD [1]: 2.6
bioavailability [6]: 83%
Kp uu at 504 h [7]: 0.5
clearance [8]: 34 mL/min/kg
Vd [9]: 1 L/kg
bioavailability [10]: 139%
Vd [11]: 1.7 L/kg
AUC [12]: 20.6 µM·h
clearance [13]: 26 mL/min/kg
Kp uu at 1 h [14]: 0.9

SMILES: Cc1nc(OCC(F)(F)F)c(C(=O)N[C@H]2C3CC4CC2C[C@](O)(C4)C3)s1
logD [1]: 3.1

SMILES: O=C(N[C@H]1C2CC3CC1C[C@](O)(C3)C2)c1cncs1
logD [1]: 0.8

SMILES: COCCOc1nc([C@H]2CCCO2)c(C(=O)NC2C3CC4CC2CC(O)(C4)C3)s1 (stereo partly specified)
Kp at 1 h [2]: 0.8
clearance [3]: 8 mL/min/kg
logD [1]: 2.1
bioavailability [4]: 24%

SMILES: O=C(NC1C2CC3CC1CC(O)(C3)C2)c1cnc(N[C@H]2CCOC2)nc1C1CCCC1 (stereo partly specified)
Papp A→B [15]: 3 ×10⁻⁶ cm/s
bioavailability [4]: 64%

SMILES: COCc1nc([C@H]2CCCO2)c(C(=O)N[C@H]2C3CC4CC2C[C@](O)(C4)C3)s1
logD [1]: 1.9

SMILES: CCCSc1nc(C)sc1C(=O)N[C@H]1C2CC3CC1C[C@](O)(C3)C2
logD [1]: 3.1

SMILES: CN(C)c1nc([C@H]2CCCO2)c(C(=O)N[C@H]2C3CC4CC2C[C@](O)(C4)C3)s1
logD [1]: 2.7

SMILES: CNc1nc([C@H]2CCCO2)c(C(=O)N[C@H]2C3CC4CC2C[C@](O)(C4)C3)s1
logD [1]: 2.1

SMILES: CCOc1nc(C)sc1C(=O)N[C@H]1C2CC3CC1C[C@](O)(C3)C2
logD [1]: 2.6

SMILES: Nc1nc([C@H]2CCCO2)c(C(=O)N[C@H]2C3CC4CC2C[C@](O)(C4)C3)s1
logD [1]: 1.7

SMILES: C[C@@H]1CN(c2ncc(C(=O)NC3C4CC5CC3CC(O)(C5)C4)c([C@H]3CCCO3)n2)C[C@H](C)O1 (stereo partly specified)
Kp at 1 h [2]: 0.3
logD [1]: 2.3
Papp A→B [15]: 23 ×10⁻⁶ cm/s
bioavailability [4]: 35%

SMILES: O=C(NC1C2CC3CC1CC(O)(C3)C2)c1scnc1[C@H]1CCCO1 (stereo partly specified)
clearance [3]: 52 mL/min/kg
logD [1]: 1.6
bioavailability [4]: 0%

SMILES: CCc1nc([C@H]2CCCO2)c(C(=O)N[C@H]2C3CC4CC2C[C@](O)(C4)C3)s1
logD [1]: 2.4

SMILES: C[C@@H]1CN(c2ncc(C(=O)NC3C4CC5CC3CC(O)(C5)C4)c(C3CCCC3)n2)C[C@H](C)O1 (stereo partly specified)
logD [1]: 3.6
Papp A→B [15]: 20 ×10⁻⁶ cm/s
bioavailability [4]: 70%

SMILES: Cc1nc(OC2COC2)c(C(=O)N[C@H]2C3CC4CC2C[C@](O)(C4)C3)s1
logD [1]: 1.5

SMILES: COc1c(C(=O)NC2C3CC4CC2CC(O)(C4)C3)cnn1C (stereo unspecified)
Kp at 1 h [2]: 0.1
logD [1]: 0.4
bioavailability [4]: 27%

SMILES: Cc1nc(C(F)(F)F)c(C(=O)N[C@H]2C3CC4CC2C[C@](O)(C4)C3)s1
logD [1]: 1.5

SMILES: N#CC1CC(Oc2nc([C@H]3CCCO3)c(C(=O)NC3C4CC5CC3CC(O)(C5)C4)s2)C1 (stereo partly specified)
logD [1]: 2.4

SMILES: CS(=O)(=O)Cc1nc([C@H]2CCCO2)c(C(=O)NC2C3CC4CC2CC(O)(C4)C3)s1 (stereo partly specified)
Kp at 1 h [2]: < 0.05
clearance [3]: 17 mL/min/kg
logD [1]: 0.4
bioavailability [4]: 65%

SMILES: COCCc1nc([C@H]2CCCO2)c(C(=O)N[C@H]2C3CC4CC2C[C@](O)(C4)C3)s1
logD [1]: 1.8

The remaining lines, values ahead:

logD [1]: 2.9
SMILES: CCOc1nc(C2CC2)c(C(=O)N[C@H]2C3CC4CC2C[C@](O)(C4)C3)s1

Kp at 1 h [2]: 1.2
clearance [3]: 22 mL/min/kg
logD [1]: 2
bioavailability [4]: 23%
SMILES: COc1nc(C)sc1C(=O)N[C@H]1C2CC3CC1C[C@](O)(C3)C2

Kp at 1 h [2]: 1.6
clearance [3]: 14 mL/min/kg
logD [1]: 1.9
bioavailability [4]: 12%
SMILES: Cc1nc(C2CC2)c(C(=O)N[C@H]2C3CC4CC2C[C@](O)(C4)C3)s1

logD [1]: 3.6
SMILES: O=C(N[C@H]1C2CC3CC1C[C@](O)(C3)C2)c1sc(OCC2CC2)nc1C1CC1

logD [1]: 1.3
SMILES: Cc1nc(C)c(C(=O)N[C@H]2C3CC4CC2C[C@](O)(C4)C3)s1

logD [1]: 2.4
SMILES: O=C(N[C@H]1C2CC3CC1C[C@](O)(C3)C2)c1sc(O[C@@H]2CCCO2)nc1C1CC1

Kp at 1 h [2]: 1.5
clearance [3]: 17 mL/min/kg
logD [1]: 1.8
bioavailability [4]: 11%
SMILES: Cc1nc([C@H]2CCCO2)c(C(=O)N[C@H]2C3CC4CC2C[C@](O)(C4)C3)s1

Kp at 1 h [2]: 1.8
clearance [3]: 15 mL/min/kg
logD [1]: 2.6
bioavailability [4]: 45%
SMILES: COc1nc(C2CC2)c(C(=O)N[C@H]2C3CC4CC2C[C@](O)(C4)C3)s1

Kp at 1 h [2]: 0.9
clearance [3]: 13 mL/min/kg
logD [1]: 2.8
bioavailability [4]: 16%
SMILES: COC[C@H](C)Oc1nc([C@H]2CCCO2)c(C(=O)NC2C3CC4CC2CC(O)(C4)C3)s1 (stereo partly specified)

Kp at 1 h [2]: 1.1
clearance [3]: 21 mL/min/kg
logD [1]: 2.3
bioavailability [4]: 40%
SMILES: COc1nc([C@H]2CCCO2)c(C(=O)N[C@H]2C3CC4CC2C[C@](O)(C4)C3)s1

Vd [16]: 1 L/kg
Kp uu at 504 h [17]: 0.2
Kp at 1 h [2]: 0.4
clearance [18]: 18 mL/min/kg
AUC [19]: 12 µM·h
clearance [20]: 16 mL/min/kg
logD [1]: 2.6
AUC [21]: 7.9 µM·h
Vd [22]: 0.6 L/kg
bioavailability [23]: 73%
bioavailability [24]: 79%
Kp uu at 1 h [14]: 0.4
SMILES: N#CC1(COc2nc(C3CC3)c(C(=O)N[C@H]3C4CC5CC3C[C@](O)(C5)C4)s2)CC1

logD [1]: 2.6
SMILES: COC[C@@H](C)Oc1nc(C2CC2)c(C(=O)N[C@H]2C3CC4CC2C[C@](O)(C4)C3)s1

Kp at 1 h [2]: 1.2
clearance [3]: 27 mL/min/kg
bioavailability [4]: 23%
SMILES: COCCOc1nc(C2CC2)c(C(=O)N[C@H]2C3CC4CC2C[C@](O)(C4)C3)s1

logD [1]: 3.2
SMILES: Cc1nc(OC2CCC2)c(C(=O)NC2C3CC4CC2CC(O)(C4)C3)s1 (stereo unspecified)

Kp at 1 h [2]: 0.2
clearance [3]: 5 mL/min/kg
logD [1]: 1.6
bioavailability [4]: 25%
SMILES: O=C(N[C@H]1C2CC3CC1C[C@](O)(C3)C2)c1sc(OCCO)nc1C1CC1

logD [1]: 1.8
SMILES: Cc1nc([C@@H]2CCCO2)c(C(=O)N[C@H]2C3CC4CC2C[C@](O)(C4)C3)s1

logD [1]: 2.8
SMILES: COC[C@H](C)Oc1nc(C2CC2)c(C(=O)N[C@H]2C3CC4CC2C[C@](O)(C4)C3)s1

logD [1]: 3
SMILES: Cc1nc(OC(C)C)c(C(=O)N[C@H]2C3CC4CC2C[C@](O)(C4)C3)s1

Kp at 1 h [2]: 1.2
clearance [3]: 21 mL/min/kg
logD [1]: 2.7
bioavailability [4]: 53%
SMILES: O=C(N[C@H]1C2CC3CC1C[C@](O)(C3)C2)c1sc(OC2CCOCC2)nc1C1CC1

logD [1]: 3.4
SMILES: CC(C)Oc1nc(C2CC2)c(C(=O)N[C@H]2C3CC4CC2C[C@](O)(C4)C3)s1
